Laboratory results published in US10596172B2 (Celgene CAR LLC, priority 2008, dated 2020).
pIC50: −log10 of the molar value. Read-outs that look alike come from different tables or passages of the source.

Legend:
BTK [1] = molecular target: T1, BTK (Homo sapiens (Human), UniProt Q06187); assay: Mass spectrometry for BTK (covalent modification of intact protein); type: binding; conditions: 1 hr, 10x fold excess of compound
Procedure: Intact BTK was incubated for 1 hr at a 10× fold excess of I-7 to protein. Aliquots (2 μl) of the samples were diluted with 10 μl of 0.1% TFA prior to micro C4 ZipTipping directly onto the MALDI target using Sinapinic acid as the desorption matrix (10 mg/ml in 0.1% TFA:Acetonitrile 20:80).

[2] = tested on: B cell lymphoma cell lines; assay: B cell lymphoma proliferation assay; type: cell-based
BTK [3] = molecular target: T1, BTK; assay: Washout experiment with Ramos cells; type: cell-based; conditions: 100 nM compound 1 hour, then washout
Procedure: Ramos cells were serum starved for one hour in RPMI media +1% glutamine at 37° C. After starvation, Ramos cells were treated with 100 nM compound diluted in serum free RPMI media for 1 hour. After compound treatment, the media was removed and cells were washed with compound-free media. Subsequently, Ramos cells were washed every 2 hours and resuspended in fresh compound-free media. Cells were collected at specified timepoints, treated with 1 ug anti-human IgM (Southern Biotech cat #2022-01) for 10 minutes on ice to induce BCR signaling and then washed in PBS. Ramos cells were then lysed in Cell Extraction Buffer (Invitrogen FNN0011) supplemented with Roche complete protease inhibitor tablets (Roche 11697498001) and phosphatase inhibitors (Roche 04 906 837 001) and 18 ug total protein lysate was loaded in each lane. Inhibition of BTK kinase activity was assayed by measuring its substrate (PLCγ2) phosphorylation by western blot with phospho-specific antibodies from Cell Signaling Technologies cat #3871. The results of this experiment with compounds I-2, I-4 and I-7 are depicted in FIGS. 1, 2 and 3.

JAK3 = JAK3 (Homo sapiens (Human), UniProt P52333); assay: Omnia assay for potency assessment against the active form of JAK3; type: biochemical; conditions: read-out: JAK3 Inhibition
JAK3, sequence (P52333 whole entry): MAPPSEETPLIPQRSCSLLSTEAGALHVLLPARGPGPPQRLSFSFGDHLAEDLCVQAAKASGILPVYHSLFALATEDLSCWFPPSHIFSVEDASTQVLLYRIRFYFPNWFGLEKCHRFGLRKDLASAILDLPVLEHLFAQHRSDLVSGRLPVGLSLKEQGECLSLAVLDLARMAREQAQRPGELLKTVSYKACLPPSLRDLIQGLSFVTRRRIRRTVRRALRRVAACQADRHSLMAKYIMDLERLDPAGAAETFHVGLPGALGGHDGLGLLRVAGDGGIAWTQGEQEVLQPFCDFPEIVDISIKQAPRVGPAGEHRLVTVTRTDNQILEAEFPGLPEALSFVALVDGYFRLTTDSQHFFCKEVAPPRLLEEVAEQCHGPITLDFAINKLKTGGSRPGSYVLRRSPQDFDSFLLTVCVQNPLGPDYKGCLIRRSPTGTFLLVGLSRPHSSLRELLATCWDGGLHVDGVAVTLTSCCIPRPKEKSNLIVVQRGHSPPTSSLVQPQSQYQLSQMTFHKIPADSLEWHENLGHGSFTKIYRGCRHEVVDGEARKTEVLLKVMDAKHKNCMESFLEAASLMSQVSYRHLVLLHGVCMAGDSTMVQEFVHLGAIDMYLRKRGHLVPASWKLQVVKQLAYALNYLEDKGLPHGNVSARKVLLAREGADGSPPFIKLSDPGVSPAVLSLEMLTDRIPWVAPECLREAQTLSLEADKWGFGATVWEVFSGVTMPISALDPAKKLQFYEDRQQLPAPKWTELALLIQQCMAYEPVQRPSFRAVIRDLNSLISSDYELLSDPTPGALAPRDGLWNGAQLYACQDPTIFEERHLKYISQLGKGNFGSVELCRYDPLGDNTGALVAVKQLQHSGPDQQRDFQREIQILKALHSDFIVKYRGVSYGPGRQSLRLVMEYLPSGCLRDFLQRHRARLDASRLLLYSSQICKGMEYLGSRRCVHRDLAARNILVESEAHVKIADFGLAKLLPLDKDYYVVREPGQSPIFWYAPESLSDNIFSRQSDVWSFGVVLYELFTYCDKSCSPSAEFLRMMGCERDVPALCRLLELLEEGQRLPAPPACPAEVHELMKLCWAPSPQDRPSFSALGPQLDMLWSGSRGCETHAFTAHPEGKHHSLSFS
Procedure: Briefly, 10× stocks of EGFR-WT (PV3872) from Invitrogen and EGFR-T790M/L858R (40350) from BPS Bioscience, San Diego, Calif., 1.13×ATP (AS001A) and appropriate Tyr-Sox conjugated peptide substrates (KCZ1001) were prepared in 1× kinase reaction buffer consisting of 20 mM Tris, pH 7.5, 5 mM MgCl2, 1 mM EGTA, 5 mM β-glycerophosphate, 5% glycerol (10× stock, KB002A) and 0.2 mM DTT (DS001A).
The Omnia Assay Protocol for potency assessment against JAK3 was performed in a substantially similar manner as that described in Example 251 above except that the modified JAK3-optimized reagent conditions were:
[JAK3]=5 nM, [ATP]=5 μM, [Y12-Sox]=5 μM (ATP KMapp˜5 μM).

BTK [4] = molecular target: T1, BTK; assay: Omnia assay for potency assessment against BTK; type: biochemical; conditions: [BTK]=5 nm; read-out: BTK Inhibition
Procedure: Omnia Assay Protocol for Potency Assessment Against BTK
The modified BTK-optimized reagent conditions for the above protocol are:
[BTK]=5 nm, [ATP]=40 mM, [Y5-Sox]=10 mM (ATP KMapp˜36 mM).

EGFR-WT = EGFR-WT (Homo sapiens (Human), UniProt P00533); assay: Omnia assay for potency assessment against EGFR (WT); type: biochemical; conditions: wild-type EGFR; read-out: EGFR Wild Type Inhibition
[5] = DHL4 B cell lymphoma cell line, read-out: EC50 (μM) DHL4
[6] = Homo sapiens, DOHH-2, DOHH2 B cell lymphoma cell line, read-out: EC50 (μM) DOHH2
[7] = Homo sapiens, WSUDLCL2, WSU-DLCL2 B cell lymphoma cell line, read-out: EC50 (μM) WSU-DLCL2

T1 sequence (Q06187 whole entry): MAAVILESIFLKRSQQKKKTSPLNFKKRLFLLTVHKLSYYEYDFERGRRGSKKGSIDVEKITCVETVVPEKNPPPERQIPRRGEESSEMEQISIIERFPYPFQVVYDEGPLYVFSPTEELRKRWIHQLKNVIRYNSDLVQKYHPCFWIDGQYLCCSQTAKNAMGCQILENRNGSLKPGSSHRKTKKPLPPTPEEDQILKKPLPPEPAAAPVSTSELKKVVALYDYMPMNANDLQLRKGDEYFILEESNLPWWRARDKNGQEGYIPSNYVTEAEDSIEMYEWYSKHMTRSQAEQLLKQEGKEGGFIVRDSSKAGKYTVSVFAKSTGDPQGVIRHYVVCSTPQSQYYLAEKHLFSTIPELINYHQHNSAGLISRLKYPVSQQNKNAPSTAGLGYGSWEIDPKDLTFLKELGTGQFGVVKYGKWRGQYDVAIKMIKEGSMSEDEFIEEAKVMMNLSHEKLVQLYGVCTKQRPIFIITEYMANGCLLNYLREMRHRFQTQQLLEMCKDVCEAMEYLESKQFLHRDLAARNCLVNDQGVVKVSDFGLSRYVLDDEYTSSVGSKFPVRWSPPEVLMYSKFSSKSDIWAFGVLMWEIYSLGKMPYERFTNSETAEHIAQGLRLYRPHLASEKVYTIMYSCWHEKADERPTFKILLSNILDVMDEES

| Molecule | covalent modification of BTK by mass spectrometry (BTK [1]) | EC50 [2, 5] | EC50 [2, 6] | BTK Inhibition Type (BTK [3]) | pIC50 (JAK3) | EC50 [2, 7] | pIC50 (BTK [4]) | pIC50 (EGFR-WT) |
| --- | --- | --- | --- | --- | --- | --- | --- | --- |
| C=C(C#N)C(O)c1ccc(Nc2nc(Nc3ccccc3)ncc2F)cc1 (centres unmarked) [Compound I-161, 2-((4-(5-fluoro-2-(phenylamino)pyrimidin-4-ylamino)phenyl)(hydroxy)methyl)acrylonitrile] | completely modify | 1 to 10 µM | 1 to 10 µM | – | – | – | – | – |
| C=CC(=O)Nc1cccc(Nc2nc(Nc3ccc(OC)nc3)ncc2F)c1 [Compound I-243, N-(3-(5-fluoro-2-(6-methoxypyridin-3-ylamino)pyrimidin-4-ylamino)phenyl)acrylamide] | – | – | 1 to 10 µM | irreversible | > 8.00 | 1 to 10 µM | – | – |
| 2-((4-(5-fluoro-2-(3-trifluoromethoxyphenylamino)pyrimidin-4-ylamino)phenyl)(hydroxy)methyl)acrylonitrile [Compound I-163] | completely modify | – | – | – | – | – | – | – |
| C=CC(=O)N1CCC[C@@H](Nc2nc(Nc3cccc(OC)c3)ncc2F)C1 [Compound I-195, (R)-1-(3-(5-fluoro-2-(3-methoxyphenylamino)pyrimidin-4-ylamino)piperidin-1-yl)prop-2-en-1-one] | completely modify | > 10 µM | 1 to 10 µM | – | – | > 10 µM | – | – |
| C=CC(=O)Nc1cccc(Nc2nc(Nc3ccccc3)ncc2C(N)=O)c1 [Compound I-230, 4-(3-acrylamidophenylamino)-2-(phenylamino)pyrimidine-5-carboxamide] | – | – | 1 to 10 µM | irreversible | – | 1 to 10 µM | – | – |
| C=CC(=O)Nc1cccc(Nc2nc(Nc3cccc(OC)c3)ncc2C(F)(F)F)c1 [Compound I-242, N-(3-(5-trifluoromethyl-2-(3-methoxyphenylamino)pyrimidin-4-ylamino)phenyl)acrylamide] | – | – | 1 to 10 µM | irreversible | > 8.00 | 1 to 10 µM | – | – |
| C=CC(=O)N(C)Cc1ccc(Nc2nc(Nc3ccccc3)ncc2C)cc1 [Compound I-219, N-methyl-N-(4-(5-methyl-2-(phenylamino)pyrimidin-4-ylamino)benzyl)acrylamide] | completely modify | – | – | – | – | – | – | – |
| C=CC(=O)Nc1cccc(Nc2nc(Nc3ccc(F)cc3)ncc2F)c1 [Compound I-247, N-(3-(5-fluoro-2-(4-fluorophenylamino)pyrimidin-4-ylamino)phenyl)acrylamide] | – | – | 0.1 to 1 µM | irreversible | > 8.00 | 1 to 10 µM | – | – |
| C=CC(=O)Nc1cccc(Nc2nc(Nc3ccccc3)ncc2F)c1 [Compound I-28, N-(3-(5-fluoro-2-(phenylamino)pyrimidin-4-ylamino)phenyl)acrylamide] | – | – | 1 to 10 µM | irreversible | > 8.00 | 1 to 10 µM | – | – |
| 4-(4-(4-(3-acrylamidophenylamino)-5-fluoropyrimidin-2-ylamino)phenoxy)pyridine [Compound I-346] | – | – | – | – | – | – | > 8.00 | 6.00 to 7.00 |
| C=CC(=O)Nc1cccc(Nc2nc(Nc3ccc(OCCOCCNC(=O)OC(C)(C)C)cc3)ncc2F)c1 [Compound I-370, tert-butyl 2-(2-(4-(4-(3-acrylamidophenylamino)-5-fluoropyrimidin-2-ylamino)phenoxy)ethoxy)ethylcarbamate] | – | – | – | – | – | – | > 8.00 | > 8.00 |
| C=C(C#N)C(O)c1cccc(Nc2nc(Nc3ccc(OCCOC)cc3)ncc2F)c1 (centres unmarked) [Compound I-71, 2-((3-(5-fluoro-2-(4-(2-methoxyethoxy)phenylamino)pyrimidin-4-ylamino)phenyl)(hydroxy)methyl)acrylonitrile] | completely modify | – | – | – | – | – | – | – |
| C=CC(=O)Nc1cccc(Oc2nc(Nc3ccccc3)ncc2C)c1 [Compound I-248, N-(3-(5-methyl-2-(phenylamino)pyrimidin-4-yloxy)phenyl)acrylamide] | – | – | 1 to 10 µM | irreversible | > 8.00 | 1 to 10 µM | – | – |
| C=CC(=O)Nc1cccc(Nc2nc(Nc3ccc(OCCN=[N+]=[N-])cc3)ncc2F)c1 [Compound I-376, N-(3-(2-(4-(2-azidoethoxy)phenylamino)-5-fluoropyrimidin-4-ylamino)phenyl)acrylamide] | – | – | – | – | – | – | > 8.00 | 7.00 to 8.00 |
| C=CC(=O)Nc1cccc(Nc2nc(Nc3ccc(OCCOCCNC(=O)CCCC(=O)NCCCOCCOCCOCCCNC(=O)CCCC[C@@H]4SC[C@@H]5NC(=O)N[C@@H]54)cc3)ncc2F)c1 [Compound I-363, N1-(2-(2-(4-(4-(3-acrylamidophenylamino)-5-fluoropyrimidin-2-ylamino)phenoxy)ethoxy)ethyl)-N5-(15-oxo-19-((3aS,4S,6aR)-2-oxohexahydro-1H-thieno[3,4-d]imidazol-4-yl)-4,7,10-trioxa-14-azanonadecyl)glutaramide] | – | – | – | – | – | – | > 8.00 | > 8.00 |
| C#CCOc1cccc(Nc2ncc(C)c(Nc3cccc(NC(=O)C=C)c3)n2)c1 [Compound I-35, N-(3-(5-methyl-2-(3-(prop-2-ynyloxy)phenylamino)pyrimidin-4-ylamino)phenyl) acrylamide] | – | – | 1 to 10 µM | irreversible | > 8.00 | 1 to 10 µM | – | – |
| C=CC(=O)Nc1cccc(Oc2nc(Nc3ccccc3)ncc2F)c1 [Compound I-228, N-(3-(5-fluoro-2-(phenylamino)pyrimidin-4-yloxy)phenyl)acrylamide] | – | – | > 10 µM | irreversible | – | > 10 µM | – | – |
| C=CC(=O)Nc1cccc(Nc2nc(Nc3ccc(Cl)c(O[C@@H](C)COC(=O)[C@@H](N)C(C)C)c3)ncc2F)c1 [Compound I-369, (S)-((S)-2-(5-(4-(3-acrylamidophenylamino)-5-fluoropyrimidin-2-ylamino)-2-chlorophenoxy)propyl)-2-amino-3-methylbutanoate] | – | – | – | – | – | – | > 8.00 | 6.00 to 7.00 |
| COCCOc1ccc(Nc2ncc(F)c(Nc3ccc(CC(=O)C=C4CCC4)cc3)n2)cc1F [Compound I-378] | – | – | – | – | – | – | > 8.00 | 7.00 to 8.00 |
| C=CC(=O)Nc1cccc(Nc2nc(Nc3ccc(OCCOC)c(OCCOC)c3)ncc2F)c1 [Compound I-277, N-(3-(2-(3,4-bis(2-methoxyethoxy)phenylamino)-5-fluoropyrimidin-4-ylamino)phenyl)acrylamide] | – | – | – | – | – | – | > 8.00 | 7.00 to 8.00 |
| Cc1cnc(Nc2ccccc2)nc1Nc1cccc(NC(=O)/C=C/CN(C)C)c1 [Compound I-38, (E)-4-(dimethylamino)-N-(3-(5-methyl-2-(phenylamino)pyrimidin-4-ylamino)phenyl)but-2-enamide] | – | – | 1 to 10 µM | reversible | 7.00 to 8.00 | 1 to 10 µM | – | – |
| C=CC(=O)N1CCOc2ccc(Nc3ncc(F)c(Nc4cccc(Cl)c4)n3)cc21 [Compound I-149, 1-(6-(4-(3-chlorophenylamino)-5-fluoropyrimidin-2-ylamino)-2H-benzo[b][1,4]oxazin-4(3H)-yl)prop-2-en-1-one] | completely modify | – | 1 to 10 µM | – | – | – | – | – |
| Cc1cccc(Nc2nc(Nc3cccc(NC(=O)/C=C/CN(C)C)c3)ncc2C)c1 [Compound I-360, (E)-4-(dimethylamino)-N-(3-(5-methyl-4-(m-tolylamino)pyrimidin-2-ylamino)phenyl)but-2-enamide] | – | – | – | – | > 8.00 | – | > 8.00 | > 8.00 |
| C=CC(=O)Nc1cccc(Nc2nc(Nc3cccc(OC(F)(F)F)c3)ncc2F)c1 [Compound I-244, N-(3-(5-fluoro-2-(3-(trifluoromethoxy)phenylamino)pyrimidin-4-ylamino)phenyl)acrylamide] | completely modify | 1 to 10 µM | 0.1 to 1 µM | – | > 8.00 | 1 to 10 µM | – | – |
| CC(C)=CC(=O)c1cccc(Nc2nc(Nc3cccc(OCCN(C)C)c3)ncc2F)c1 [Compound I-207] | completely modify | – | 0.1 to 1 µM | – | – | 1 to 10 µM | – | – |
